Data taken from publication PMC8147764, “Heterologous Expression, Engineering and Characterization of a Novel Laccase of Agrocybe pediades with Promising Properties as Biocatalyst” (Journal of Fungi, 2021).

Target: T1, ApL (A. pediades laccase) (Agrocybe pediades, UniProt A0A8H4QKE8, V194E/N433D)
T1 construct: gene D9613_012768
Details: read-out: IC50 (mM or v/v % ^a); DM variant; ABTS about 3 mM, citrate-phosphate pH 3; fluoride, TNC site

## F [NaF]
  IC50: 0.051 ± 0.002 mM
